Measured values taken from US20120108538A1, “SULFATED POLYSACCHARIDES HAVING ANTIPLASMODIAL ACTIVITY AND METHODS AND PRODUCTS FOR IDENTIFYING ANTIPLASMODIAL ACTIVITY” (priority 2009, published 2012).
Entries after “also recorded” stand apart in the source; their conditions may differ.

Legend:
[1] = tested on: P. falciparum blood stage growth; assay: Growth inhibition assay (GIA), flow cytometry; type: cell-based, Plasmodium falciparum; conditions: for inhibition of different P. falciparum lines: 3D7, W2mef, D10, E8B, XIE, HCS3, SA-dependent and SA-independent invasion
Method: P. falciparum was cultured as described. Parasites were maintained in culture media of RPMI-HEPES supplemented with 5% (vol/vol) heat inactivated (56° C. 1 hr) human serum (Australian Red Cross Blood Bank),. […] (Gibco), 10mM L-glutamine (Gibco) and 25 mM […]. Parasites were grown at 37° C., 2% hematocrit, O+ human erythrocytes (Australian Red Cross Blood Bank), 1% O2 4% CO2 95% N2 atmosphere. Sorbitol (Sigma-Aldrich) was used to synchronize cultures. 32. Persson K E, Lee C T, Marsh K, Beeson J G (2006) Development and optimization of high-throughput methods to measure Plasmodium falciparum-specific growth inhibitory antibodies. J Clin Microbiol 44: 1665-1673.33. Lambros C, Vanderberg J P (1979) Synchronization of Plasmodium falciparum erythrocytic stages in culture. J Parasitol 65: 418-420.
Heparin and K5 polysaccharides (Table 1) were tested for inhibitory activity against P. falciparum parasites using high throughput growth inhibitory assays (GlAs). Duplicate 25 μl suspensions of synchronized parasites, 2% parasitemia (32 hr trophozoite), 1% hematocrit with normal or enzymatically treated erythrocyctes, were incubated with inhibitory compounds in 96 well sterile U-bottom plates (Falcon). For humidification, outside wells were filled with sterile human tonicity phosphate-buffered saline (HT-PBS). Plates were incubated as for parasite culture for 44 hrs and analyzed. Parasites were stained with 10 μg/mL ethidium bromide (EtBr) (BioRad), HT-PBS, 1 hr in darkness. Cells were washed and re-suspended in 200 μL HT-PBS. Parasitemia was measured using FACSCalibur flow-cytometry. Data were analyzed using FlowJo (Tree Star), gating on intact erythrocytes and determining parasitemia by EtBr staining. Inhibitory effects of compounds were expressed as percent growth of uninhibited controls (HT-PBS) for each experiment.
Erythrocytes were treated with neuraminidase, chymotrypsin and trypsin as described previously. Erythrocytes were washed with RPMI-HEPES and incubated with neuraminidase ([…], 15 minutes), chymotrypsin (1 mg/mL, 45 minutes) or trypsin (100 μg/mL, […]) at 37° C. Neuraminidase treated bells were washed three times with RPMI-HEPES and chymotrypsin and trypsin treated cells were washed once with culture media and twice with RPMI-HEPES and then used in GIAs. 34. Persson K E, McCallum F J, Reiling L, Lister N A, Stubbs J, et al. (2008) Variation in use of erythrocyte invasion pathways by Plasmodium falciparum mediates evasion of human inhibitory antibodies. J Clin Invest 118: 342-351.

[2] = target: MSP1-42 (Plasmodium falciparum, UniProt Q8I0U8); assay: Binding of native merozoite proteins to heparin-agarose beads with soluble inhibitors; design: proteolytically processed into 83 kDa, 30 kDa, 38 kDa and a C-terminal 42kDa (MSP1-42) fragment; endogenous in cells; host or cells: P. falciparum schizont-stage cultures, Triton X-100 extract; species or system P. falciparum; conditions: soluble inhibitor 200 μg/mL
From the text: Synchronized schizont stage (40-48 hr, 5-8% parasitemia) cultures were used for protein extraction. Uninfected erythrocytes were lysed with 0.15% saponin (Kodak) on ice for ten minutes. Remaining pellets were washed three times with cold HT-PBS. Protein from schizonts was extracted with 5 times volume of 1% TritonX100 (TX100) (Sigma-Aldrich, Australia), HT-PBS with protease inhibitors (Roche). Insoluble components were pelleted by centrifugation and supernatants collected. Schizont TX100 extracted proteins were bound to heparin-agarose beads (Sigma-Aldrich, Australia) as previously described. Heparin-agarose beads were washed once with 1% casein in PBS, once in PBS, and then blocked with 1% casein in PBS overnight at 4° C. TX100 merozoite protein extracts where incubated with beads containing 0.1% casein and 200 μg/mL of test inhibitor, or PBS as control, overnight at 4° C.; 50 μL of packed beads and 100 μL protein and inhibitor were used or each test sample. Inhibitors used were heparin and CSC. Unbound proteins in the supernatant were collected through Micro Bio-Spin Chromatography Columns (Bio-Rad). After incubation, beads were washed five times with PBS containing 0.1% casein and 1% Triton X-100. Bound proteins were eluted from beads with 50 μL of warmed reducing sample buffer. Bound and unbound proteins were separated by SDS-PAGE under reducing conditions and blotted onto membranes for probing with antibody detection with anti-MSP1 or anti-EBA175. 36. Baum J, Chen L, Healer J, Lopaticki S, Boyle M, et al. (2009) Reticulocyte-binding protein homologue 5—an essential adhesin involved in invasion of human erythrocytes by Plasmodium falciparum: Int J Parasitol 39: 371-380.

[3] = target: T1, lactoferrin (Homo sapiens, UniProt P02788); assay: Heparin-BSA binding assay (positive control protein); conditions: data not shown
T1 construct: purchased
Method: Recombinant merozoite antigens were coated (1 μg/mL) onto 96 well plates (Nunc Maxisorb) in HT-PBS overnight at 4° C. Plates were washed and blocked with 1% casein, 1 hr, room temperature. Plates were incubated with heparin-BSA conjugate with soluble inhibitors and detected with anti-BSA (rabbit) (Sigma-Aldrich) antibodies and anti-rabbit -HRP. Detection was performed with 2,2′-azino-bis(3-ethylbenzthiazoline-6-sulphonic acid) (Sigma-Aldrich) monitored for colour change and measured for absorbance at 405 nm. All incubations were performed in HT-PBS 0.1% casein 0:05% Tween20, 1 hr at room temperature. Plates were washed 3 times HT-PBS 0.05% Tween20 between incubations.

MSP1-42, sequence (Q8I0U8 1327-1699): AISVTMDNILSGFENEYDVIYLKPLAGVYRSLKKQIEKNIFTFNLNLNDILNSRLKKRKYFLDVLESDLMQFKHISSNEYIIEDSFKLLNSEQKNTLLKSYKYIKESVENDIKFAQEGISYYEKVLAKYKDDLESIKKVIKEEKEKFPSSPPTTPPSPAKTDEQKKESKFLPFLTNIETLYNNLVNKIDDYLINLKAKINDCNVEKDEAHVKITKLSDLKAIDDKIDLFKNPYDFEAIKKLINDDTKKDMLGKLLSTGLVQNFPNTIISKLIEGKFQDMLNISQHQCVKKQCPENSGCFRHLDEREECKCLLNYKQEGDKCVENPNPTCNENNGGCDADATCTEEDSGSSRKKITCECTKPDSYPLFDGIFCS
T1 sequence (P02788 20-710, species assumed): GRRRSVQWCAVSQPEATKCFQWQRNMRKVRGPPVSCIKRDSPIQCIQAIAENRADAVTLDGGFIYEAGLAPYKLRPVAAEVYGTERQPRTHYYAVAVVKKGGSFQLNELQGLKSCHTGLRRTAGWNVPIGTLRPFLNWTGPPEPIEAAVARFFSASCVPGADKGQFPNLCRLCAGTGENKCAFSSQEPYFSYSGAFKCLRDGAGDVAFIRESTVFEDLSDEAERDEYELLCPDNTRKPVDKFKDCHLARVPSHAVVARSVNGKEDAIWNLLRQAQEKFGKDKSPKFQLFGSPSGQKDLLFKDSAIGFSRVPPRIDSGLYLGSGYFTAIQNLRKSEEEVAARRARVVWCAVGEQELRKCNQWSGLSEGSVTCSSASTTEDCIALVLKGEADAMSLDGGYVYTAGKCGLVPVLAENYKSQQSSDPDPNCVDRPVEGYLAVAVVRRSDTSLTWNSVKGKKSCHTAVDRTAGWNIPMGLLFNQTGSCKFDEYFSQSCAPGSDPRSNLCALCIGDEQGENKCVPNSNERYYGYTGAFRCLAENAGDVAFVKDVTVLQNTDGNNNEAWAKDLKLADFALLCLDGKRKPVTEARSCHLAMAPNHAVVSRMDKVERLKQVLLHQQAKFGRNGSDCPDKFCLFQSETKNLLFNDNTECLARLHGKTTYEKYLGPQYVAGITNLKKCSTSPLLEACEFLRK

Substance: Heparin
- inhibition of different P. falciparum lines [1]: inhibited to similar levels
- inhibition of different P. falciparum lines ([1]; listed as Heparin): inhibited all parasite lines tested; also recorded: inhibited at equal levels
- inhibition of invasion into enzyme-treated versus control erythrocytes ([1]; 3D7, neuraminidase, trypsin, chymotrypsin treated erythrocytes): equivalent
- IC50, inhibition of P. falciparum blood stage growth in GIA ([1]; 3D7 parasite line, one cycle of parasite growth): 19 mg/L
- selection of heparin-resistant parasites ([1]; 3D7 selected once or twice with heparin 100 μg/mL for 48 hrs): no evidence that Applicant were able to select for increased resistance
- IC50 of heparin in combination with AMA1-binding peptide ([1]; AMA1-binding peptide at 6.25 μg/mL): ~3 mg/L
- parasite growth over one cycle of replication ([1]; heparin 100 μg/mL): a very low level of parasite growth
- combination with pyrimethamine ([1]; heparin with increasing pyrimethamine): acted in an additive manner
- inhibition of native MSP1-42 binding to heparin-agarose beads [2]: effectively inhibited
- inhibition of lactoferrin binding to heparin-BSA [3]: inhibited
